The conditions of series [1]: rats, oral CrCl3 with the NSAID; cited from earlier work.
For another series, the system named is women with PCOS. To be noted: 14 women with PCOS, metformin 850 mg three times a day for 12 weeks; cited from earlier work.
In series [2] the test system is subject presenting with PCOS. The series can be described thus: Example: oral chromium picolinate/picolinic acid tablet in a subject presenting with PCOS. As to conditions: daily dose of 1,000 μg of chromium. In kind it is in vivo. As for the experimental part: A subject presenting with PCOS is identified. The subject is orally administered a tablet comprising chromium picolinate and picolinic acid at a ratio of 1:10 w/w at a daily dose of 1,000 μg of chromium. The tablet additionally comprises guaifenesin and ibuprofen in a pharmaceutically effective dose. Over the course of several weeks, a decrease in body mass and improved lipid profile is observed. The chromic picolinate sensitizes the subject's insulin and the symptoms of PCOS are reduced.

With `CC(=O)Oc1ccccc1C(=O)O` [aspirin], in series [1], the “Chromium absorption following oral administration of CrCl3” value is recorded as “facilitated”.

Regarding `CN(C)C(=N)N=C(N)N` [metformin], in the series with women with PCOS, the 17-hydroxy progesterone level entry is recorded as “unchanged”, the “Body mass index (BMI)” value is “unchanged”, the DHEAS level entry was “unchanged” and the Free testosterone level result is given as “unchanged”. In the series with women with PCOS, the androstenedione level result was “unchanged”, the estradiol level entry is given as “unchanged”, the “follicle-stimulating hormone (FSH) level” value is recorded as “unchanged” and the insulin secretion result is recorded as “not improved”. In addition, in the series with women with PCOS, the progesterone level entry is recorded as “unchanged” and the “stimulated LH level” value is “unchanged”.

As for chromic picolinate, the “effect on the subject's insulin” value in series [2] is on record as “sensitizes”.

The values above are taken from patent US20020086065A1, “Methods and compositions for the benefit of those suffering from polycystic ovary syndrome with chromium complexes” (priority 2000, published 2002).
